# Entries after “also recorded” stand apart in the source; their conditions may differ.
# Assays:
# [1] = test system: TH protein in human monocytes; experiment: TH Bio-ELISA on lysates of treated monocytes; type: cell-based; settings: healthy donor monocytes, 4 hours; TNFα 17 ng/ml, IL6 17 ng/ml, XPro1595 50 ng/ml
# Procedure: Adherent cells in culture were lifted using 0.02% EDTA in PBS, diluted with 5 volumes of PBS, and centrifuged at 100×g. Non-adherent cells (PC12) were centrifuged at 100×g for 5 minutes at room temperature, and cell pellets were washed 3 times with 5 volumes of sterile PBS. Primary macrophages and primary murine neuron cultures were washed thrice with ice-cold PBS, on ice. Cell pellets and adherent primary cells were then lysed in ice-cold lysis buffer (10 mM NaCl, 10% glycerol (v/v), 1 mM EDTA, 1 mM EGTA, and HEPES 20 mM, pH 7.6), with Triton X-100 added to a final concentration of 1%, containing 1× protease inhibitor cocktail (Millipore-Sigma, 539131) for one hour at 4° C. with rotation. Resulting lysate was centrifuged at 12,000×g for 15 minutes at 4° C. Supernatant was set aside for protein quantification by Lowry assay (Biorad, 5000112) and the remainder was stored at −80° C. until use for downstream assays.
# Antibodies used for ELISA are described in Table 4. […]
# Duplicate standard and sample wells were averaged, and background-subtracted based on blank wells. The concentration of TH for each experimental group was calculated using a quadratic curve equation calculated in Graphpad Prism 8, then normalized to total protein concentration per sample as calculated using the Lowry assay. […]
# [2] = test system: CD14+ monocytes; experiment: Flow cytometry count of TH+ monocytes after in vitro treatment; type: cell-based, human; settings: 4 hours, TNFα 17 ng/ml; for number of TH+ monocytes, fold change relative to vehicle: healthy donor monocytes, 2 million per well, TPA 100 ng/ml, IL6 17 ng/ml, XPro1595 50 ng/ml, n=3 per group
# Procedure: Monocytes were isolated from total PBMCs prepared as described above^51 using negative selection (Biolegend, 480048) per manufacturer's instructions. Total PBMCs were Fc-blocked to reduce nonspecific binding, followed by incubations with biotin-conjugated antibody cocktail containing antibodies against all subsets except CD14 (negative selection), followed by incubation with magnetic-Avidin beads, allowing all subsets other than CD14+ monocytes to be bound to the magnet. Monocyte purity/enrichment was routinely verified to confirm that the final cell population was greater than 95% pure CD14+ cells (FIG. S2). CD14+ monocytes were collected from the supernatant fraction, washed, counted and density adjusted such that 2 million CD14+ monocytes were seeded per well (FIG. 5A) and treated for 4 hours with vehicle, TPA (100 ng/ml, Biolegend, 755802)^7, TNFα (17 ng/mL, Biolegend, 570102)^61, XPro1595 (50 ng/ml), or IL6 (17 ng/mL) in an ultra-low-adherence 6-well plate (Corning, 3471) to prevent adherence. Suspended cells from each treatment group were aspirated and placed in a 15 ml conical tube, with any remaining adherent cells detached by incubation with 700 uL Accumax solution for 3 minutes (Innovative Cell Technologies, AM105) and added to suspended cells. After pelleting cells by centrifugation (3 minutes×100 g, room temperature), cells were assayed by either flow cytometry^51 or lysed for ELISA as stated above (“Preparation of cell lysates”).
# As previously published^51, cells for flow cytometry were fixed and permeabilized (eBioscience, 88-8824-00), and stained for intracellular marker TH (Millipore-Sigma, AB152, 1:100) followed by a species-specific secondary (anti-Rabbit BV421, BD, 565014). After resuspending the sample in a final volume of 250 uL PBS, 5 uL of Invitrogen CountBright Absolute Counting Beads (5000 beads/mL, Invitrogen, C36950) were added just prior to data acquisition (Sony Spectral Analyzer, SP6800). […]
# [3] = test system: CD14+ monocytes; experiment: Intracellular flow cytometry for Ki67 (cell proliferation); type: cell-based, human; settings: TNFα treated monocytes
# Procedure: To control for donor variability, identical quantities of counting beads were added as a reference. The number of TH+ monocytes was quantified by flow cytometry (FIG. 6B, left) in two experimental groups: TPA-treated and TNFα-treated. Monocytes in each condition were gated to isolate single cells expressing TH (FIG. 6B). […] A possible mechanism for this observation is either monocyte proliferation during the treatment period or an altered monocyte phenotype in response to TNFα, with no change in total number of monocytes. In other words, following TNFα treatment, TH+ monocytes may either be increasing in number (proliferation) or existing monocytes upregulate TH expression and become TH+ (phenotypic change). While a four-hour exposure to TNFα is an insufficient time period to induce proliferative events in immune cells^74, these possibilities could not be confidently ruled out without additional analyses. Therefore, monocyte proliferation was quantified by comparing the total number of monocytes per microliter of untreated vs. TNFα treated experimental group. […] A more rigorous approach was conducted to assess Ki67 expression as a measure of cell proliferation^87. […] While this finding explains our earlier observation of increased numbers of TH+ cells, the potential phenotypic shift following TNFα mediated immune stimulation was an unpredicted and novel finding.
# [4] = test system: monocytes; experiment: Monocyte viability at different TNFα treatment durations; type: cell-based, human
# Procedure: There is strong evidence in the literature for increased TNFα in PD^27,34-36 including in the brain, cerebrospinal fluid, and serum of Parkinson's patients^27 as well as in Parkinsonian mice^37,38. […] Therefore, the hypothesis that ex vivo stimulation of monocytes from healthy subjects with TNFα stimulates TH expression was tested, as measured by changes in the number of TH-expressing monocytes, and/or the amount of TH per monocyte. Flow cytometry was employed to address the former, and bio-ELISA to address the latter. Two million monocytes isolated from whole blood of healthy donors were treated for 4 hours with tissue plasminogen activator (TPA, 100 ng/ml, positive control for increased monocyte TH expression^7), TNFα (17 ng/mL)^61 and compared with monocytes treated with vehicle (FIG. 6A). Monocytes were assayed for TH expression by two complementary methods: flow cytometry^51 (FIG. 6B-F) and ELISA (FIG. 6G-H). It is noted that because a prolonged TNFα exposure can induce cell toxicity^82-86, multiple treatment durations were tested. […] Therefore, a 4-hour treatment strategy was selected in this study.
Substance,TH concentration (picogram per milligram total protein) relative to vehicle [1],"number of TH+ monocytes, fold change relative to vehicle [2]",Ki67 expression relative to vehicle-treated controls [3],cell viability ([4]; 4-hour TNFα (17 ng/ml) treatment),cell viability ([4]; longer TNFα exposure (more than 4 hours)),"total number of monocytes per microliter, untreated vs. treated [2]"
"IL6: interleukin-6 (IL6), a cytokine with pleiotropic effects",Neither IL6 nor IL6+XPro1595 significantly increased TH quantity,no significant change in the number of TH+ monocytes,–,–,–,–
TNFα,significantly increased the amount of TH protein; also recorded: significantly increases,significant increases in TH-expressing monocytes relative to vehicle,no change in Ki67 expression,minimal effect on cell viability,substantially decreased cell viability,unchanged

# Source: US20240345090A1, “EARLY DETECTION OF INNATE IMMUNE DYSFUNCTION AND TREATMENT OF CONDITIONS ASSOCIATED THEREWITH” (UNIVERSITY OF FLORIDA RESEARCH FOUNDATION, INCORPORATED, priority 2021, published 2024)
